Experimental findings from patent publication US20050020612A1, “4-Aryliquinazolines and the use thereof as nhe-3 inhibitors” (priority 2001, published 2005) are described below.

The structures appear in SMILES notation. Where a name gives a salt, the structure may show the parent alone.

Usually melting point stands for the temperature of the solid-liquid transition. In the case of `NC(N)=Nc1nc(-c2cccc(N3CCNCC3)c2)c2cc(Cl)ccc2n1` (as salt: HCl) [Example 225], the melting point came out at 241 °C.

For the compound `Cc1ccc(-c2nc(NN=C(N)N)nc3ccc(Cl)cc23)cc1` (as salt: HCl) [Example 10], the melting point lay within 289 to 290 °C.
